From patent US20230033360A1, “COMPOUNDS AS CD73 INHIBITORS” (BioArdis LLC, priority 2019, published 2023)
pIC50: −log10 of the molar value.

These compounds were tested against T1, Recombinant Human 5′-Nucleotidase (CD73) (Homo sapiens, UniProt P21589) (assay: CD73 Enzyme Assay (PiColorLock inorganic phosphate detection, AMP substrate)). Conditions: human CD73 0.5 nM, AMP 30 μM, 20 min at 37° C., absorbance 635 nm; read-out: Potency (IC50).
T1 construct: CHO derived CD73 (Trp27-Lys547), with a C-terminal 6-His tag; 6-His (C); purchased R&D 5795-EN; host or cells: CHO
T1 sequence (P21589 27-547): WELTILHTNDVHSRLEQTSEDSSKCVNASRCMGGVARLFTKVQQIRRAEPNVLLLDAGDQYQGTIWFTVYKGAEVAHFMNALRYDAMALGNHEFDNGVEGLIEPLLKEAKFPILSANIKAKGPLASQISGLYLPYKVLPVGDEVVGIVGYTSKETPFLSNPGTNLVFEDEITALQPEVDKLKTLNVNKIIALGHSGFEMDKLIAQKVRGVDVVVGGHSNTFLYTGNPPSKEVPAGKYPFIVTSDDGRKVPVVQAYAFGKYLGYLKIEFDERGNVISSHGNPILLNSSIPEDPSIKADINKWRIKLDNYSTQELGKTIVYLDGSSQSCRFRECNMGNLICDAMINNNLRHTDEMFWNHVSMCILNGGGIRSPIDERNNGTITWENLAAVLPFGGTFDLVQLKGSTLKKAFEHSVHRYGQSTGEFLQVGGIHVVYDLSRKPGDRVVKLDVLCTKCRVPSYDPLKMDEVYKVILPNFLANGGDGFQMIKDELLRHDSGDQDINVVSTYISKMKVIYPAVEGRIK
Type: biochemical
Excerpt: Soluble recombinant CD73 catalyzes the conversion of adenosine monophosphate (AMP) to adenosine and inorganic phosphate. The phosphate detection reagent, PiColorLock™ (Innova Bioscience, Cat #303-0125) is based on the change in absorbance of the dye malachite green in the presence of inorganic phosphate (Pi) and this property can be exploited to measure any enzyme that generates Pi. Recombinant Human 5′-Nucleotidase (CD73) (R&D #5795-EN, CHO derived CD73 (Trp27-Lys547), with a C-terminal 6-His tag) was used in the enzymatic assay. This assay, run in a 384-well plate format (Corning® NBS™ 384 well plates, Cat #3640), is a generic method for measuring inorganic phosphate. The basic assay procedure involves two steps: 1) Enzyme reaction: The CD73 enzyme (R&D #5795-EN) is incubated in the presence or absence of compounds. AMP (sigma, cat #01930) is added to start the […] reaction. 2) Detection step: Gold mix is added to the assay system, then stabilizers are added. After incubation the absorbance of the solution is read at OD 635 nm. The recorded OD signal is proportional to the enzyme activity.
Briefly, 25 μl human CD73 (0.5 nM final concentration) in the enzymatic buffer solutions (20 mM Tris, 25 mM NaCl, 1 mM MgCl2, pH 7.5, 0.005% Tween-20) were mixed with various concentrations of the test compound (dissolved in 100% DMSO). These solutions were incubated for 15 min at 25° C., and subsequently 25 μl AMP (30 μM final concentration) was added to start the reaction. The final reaction mixture of enzyme-substrate-compound was incubated for 20 min at 37° C. Meanwhile ‘Gold mix’ was prepared shortly before use by adding 1/100 vol. of accelerator to the PiColorLock™ Gold reagent. 12 μL/well of the ‘Gold mix’ was added to assay plate containing 50 μL enzyme reaction buffer and incubated at 25° C. for 5 min. 5 μL/well stabilizer was added to the assay plate and incubated at 25° C. for 30 min. The absorbance of the well solutions was measured at 635 nm on a Spark 10M instrument (TECAN).
The percent (%) inhibition at each concentration of a compound was calculated relative to the […] value in the Max and Min control wells contained within each assay plate. The Max control wells contained enzyme and substrate as 0% inhibition, and the Min control wells only contained substrate without enzyme as 100% inhibition. The concentrations and percent inhibition values for a test compound are plotted and the concentration of the compound required to achieve 50% inhibition (IC50) was determined with a four-parameter logistic dose response equation.

Q: How did the pIC50 turn out when `O=P(O)(O)CP(=O)(O)OC[C@H]1O[C@@H](c2cnc3c(NC4CCCC4)cc(Cl)nn23)[C@H](O)[C@@H]1O` [Example S1, (((((2R,3S,4R,5S)-5-(6-chloro-8-(cyclopentylamino)imidazo[1,2-b]pyridazin-3-yl)-3,4-dihydroxytetrahydrofuran-2-yl)methoxy)(hydroxy)phosphoryl)methyl)phosphonic acid] was run?
A: 8.00 to 9.00

Q: With `C[C@H](Nc1cc(Cl)nn2c([C@@H]3O[C@H](COP(=O)(O)CP(=O)(O)O)[C@@H](O)[C@H]3O)cnc12)c1ccccc1F` [Example S2, [({[(2R,3S,4R,5S)-5-(6-chloro-8-{[(1S)-1-(2-fluorophenyl)ethyl]amino}imidazo[1,2-b]pyridazin-3-yl)-3,4-dihydroxyoxolan-2-yl]methoxy}(hydroxy)phosphoryl)methyl]phosphonic acid] as the compound, how does the pIC50 read?
A: 8.00 to 9.00

Q: `O=P(O)(O)CP(=O)(O)OC[C@H]1O[C@@H](c2cnc3c(N4CCC[C@H]4c4ccccc4)cc(Cl)nn23)[C@H](O)[C@@H]1O` [Example S3, (((((2R,3S,4R,5S)-5-(6-chloro-8-((S)-2-phenylpyrrolidin-1-yl)imidazo[1,2-b]pyridazin-3-yl)-3,4-dihydroxytetrahydrofuran-2-yl)methoxy)(hydroxy)phosphoryl)methyl)phosphonic acid] was tested. Which pIC50 did it give?
A: 8.00 to 9.00

Q: How did the pIC50 turn out when `O=P(O)(O)CP(=O)(O)OC[C@H]1O[C@@H](c2cnc3c(N4CC5CCCC5C4)cc(Cl)nn23)[C@H](O)[C@@H]1O` (stereo partly drawn) [Example S4, (((((2R,3S,4R,5S)-5-(6-chloro-8-(hexahydrocyclopenta[c]pyrrol-2 (1H)-yl)imidazo[1,2-b]pyridazin-3-yl)-3,4-dihydroxytetrahydrofuran-2-yl)methoxy)(hydroxy)phosphoryl)methyl) phosphonic acid] was run?
A: > 9.00

Q: How did the pIC50 turn out when `O=P(O)(O)CP(=O)(O)OC[C@H]1O[C@@H](c2cnc3c(NC4CCCCC4)cc(Cl)nn23)[C@H](O)[C@@H]1O` [Example S5, (((((2R,3S,4R,5S)-5-(6-chloro-8-(cyclohexylamino)imidazo[1,2-b]pyridazin-3-yl)-3,4-dihydroxytetrahydrofuran-2-yl)methoxy)(hydroxy)phosphoryl)methyl)phosphonic acid] was run?
A: 8.00 to 9.00

Q: How did the pIC50 turn out when `O=P(O)(O)CP(=O)(O)OC[C@H]1O[C@@H](c2cnc3c(NC4CC5CCC4C5)cc(Cl)nn23)[C@H](O)[C@@H]1O` (stereo partly drawn) [Example S6, (((((2R,3S,4R,5S)-5-(8-(bicyclo[2.2.1]heptan-2-ylamino)-6-chloroimidazo[1,2-b]pyridazin-3-yl)-3,4-dihydroxytetrahydrofuran-2-yl)methoxy)(hydroxy)phosphoryl)methyl)phosphonic acid] was run?
A: 8.00 to 9.00

Q: With `O=P(O)(O)CP(=O)(O)OC[C@H]1O[C@@H](c2ncc3c(NC4CCCC4)cc(Cl)nn23)[C@H](O)[C@@H]1O` [Example S7, (((((2R,3S,4R,5S)-5-(2-chloro-4-(cyclopentylamino)imidazo[1,5-b]pyridazin-7-yl)-3,4-dihydroxytetrahydrofuran-2-yl)methoxy)(hydroxy)phosphoryl)methyl)phosphonic acid] as the compound, how does the pIC50 read?
A: 8.00 to 9.00

Q: With `O=P(O)(O)CP(=O)(O)OC[C@H]1O[C@@H](c2ncc3c(N4CCC[C@H]4c4ccccc4)cc(Cl)nn23)[C@H](O)[C@@H]1O` [Example S8, (((((2R,3S,4R,5S)-5-(2-chloro-4-((S)-2-phenylpyrrolidin-1-yl)imidazo[1,5-b]pyridazin-7-yl)-3,4-dihydroxytetrahydrofuran-2-yl)methoxy)(hydroxy)phosphoryl)methyl)phosphonic acid] as the compound, how does the pIC50 read?
A: 8.00 to 9.00

Q: `O=P(O)(O)CP(=O)(O)OC[C@H]1O[C@@H](c2ncc3c(N4CC5CCCC5C4)cc(Cl)nn23)[C@H](O)[C@@H]1O` (stereo partly drawn) [Example S9, [({[(2R,3S,4R,5S)-5-(2-chloro-4-{hexahydro-1H-cyclopenta[c]pyrrol-2-yl}imidazo[1,5-b]pyridazin-7-yl)-3,4-dihydroxyoxolan-2-yl]methoxy}(hydroxy)phosphoryl)methyl]phosphonic acid] was tested. Which pIC50 did it give?
A: > 9.00
